Test results taken from the NIST ThermoML archive (doi:10.1021/acs.jced.9b00449).

Assay: mn = molality of the nth substance listed, in mol/kg
Settings: 100 kPa, Liquid; for kinematic viscosity: Capillary tube (Ostwald / Ubbelohde) method; for mass density: Pycnometric method

[K+].[O]=[V](=[O])[O-] [potassium vanadate] + O
Settings	kinematic viscosity [m2/s]	mass density [kg/m3]
293.15 K, m1 = 0.615	1.03e-06	1063
303.15 K, m1 = 0.874	8.5e-07	1083
313.15 K, m1 = 1.223	7.51e-07	1126
323.15 K, m1 = 1.884	7.42e-07	1171
